Values of other authors as cited in US12161629B2, “Methods and compositions for treatment of glaucoma and related conditions” (Opus Genetics, Inc., priority 2018, dated 2024).
Counter-ions that a name gives are not always drawn. Like-named read-outs stand apart in the source and are kept apart here.

How the values were obtained:
[1] = system: alpha-1 adrenergic receptor

Compound	effect on intraocular pressure (eyes of patients; in normotensive eyes or in eyes with elevated intraocular pressure)	effect on intraocular pressure (eyes of patients; in patients, Hara et al., Cardiovascular Drug Reviews (2005))	inhibitory activity, alpha-1 versus alpha-2 adrenergic receptor [1]
Cc1ccccc1N1CCN(CCc2nnc3n2CCCC3)CC1 [dapiprazole hydrochloride]	not significantly alter intraocular pressure		
CCCC(=O)N1CCCN(c2nc(N)c3cc(OC)c(OC)cc3n2)CC1 [bunazosin]		decreased intraocular pressure in patients	greater inhibitory activity towards (i) the alpha-1 adrenergic receptor compared to the (ii) alpha-2 adrenergic receptor
